Values quoted from earlier work as cited in PMC11011029, “Design and Preclinical Evaluation of a Novel Prostate-Specific Membrane Antigen Radioligand Modified with a Transthyretin Binder” (Cancers, 2024).

Tests used:
[1] = undiluted blood plasma
PSMA = target: T1, PSMA (Homo sapiens, UniProt Q04609); parameters: method as in PMID 32042329; settings: read-out: PSMA-binding affinity KD
T1 construct: expressed in transfected cells; host or cells: PC-3 PIP cells (from Prof. Martin Pomper, Johns Hopkins)

[2] = system: PC-3 PIP/flu tumor-bearing mice; settings: 24 h p.i.
[3] = parameters: method as in PMID 29684274; settings: after 24 h incubation, same experimental conditions

T1 sequence (Q04609 whole entry): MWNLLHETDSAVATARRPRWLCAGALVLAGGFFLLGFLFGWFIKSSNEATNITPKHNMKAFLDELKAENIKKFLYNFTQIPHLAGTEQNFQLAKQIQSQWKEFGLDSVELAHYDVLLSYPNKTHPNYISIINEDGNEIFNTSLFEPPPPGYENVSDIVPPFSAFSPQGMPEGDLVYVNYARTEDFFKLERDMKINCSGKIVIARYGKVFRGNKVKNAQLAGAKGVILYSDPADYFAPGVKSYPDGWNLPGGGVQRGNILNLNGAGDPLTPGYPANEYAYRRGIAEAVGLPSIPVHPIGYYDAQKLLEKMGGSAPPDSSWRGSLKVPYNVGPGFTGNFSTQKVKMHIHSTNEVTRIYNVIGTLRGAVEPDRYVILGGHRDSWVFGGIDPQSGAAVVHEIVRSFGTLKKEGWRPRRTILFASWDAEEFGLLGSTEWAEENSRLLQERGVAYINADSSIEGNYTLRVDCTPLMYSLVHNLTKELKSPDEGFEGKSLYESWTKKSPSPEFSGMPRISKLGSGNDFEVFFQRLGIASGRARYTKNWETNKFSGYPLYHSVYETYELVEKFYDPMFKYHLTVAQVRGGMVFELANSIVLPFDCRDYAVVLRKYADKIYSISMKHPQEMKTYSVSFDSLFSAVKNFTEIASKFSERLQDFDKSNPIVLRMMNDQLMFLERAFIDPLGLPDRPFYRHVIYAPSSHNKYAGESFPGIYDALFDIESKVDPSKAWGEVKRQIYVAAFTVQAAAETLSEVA

[^177Lu]Lu-PSMA-617
logD: −4.4 | fraction bound to serum proteins [1]: 59 ± 1% | Kd (PSMA): 0.013 ± 0.001 µM | uptake in PC-3 PIP xenografts [2]: 37 ± 6 % IA/g | intact radioligand [3]: < 2%
